Key:
[1] = system: lipid bodies in neutrophil cells of ZDF rats; experiment: Lipid bodies per neutrophil cell of leukocyte samples (SEM) from obese ZDF rats treated with anti-diabetic drug; type: in vivo, rat; conditions: 10 mg/kg oral gavage five times a week for 20 days
Description: (§1) Whole blood samples were obtained from a group of four obese ZDF rats treated with an anti-diabetic drug, Rosiglitazone (10 mg/kg), administered by oral gavage five times a week for 20 days and a group of four untreated obese ZDF rats induced with a saline solution administered by oral gavage five times a week for 20 days.
A whole blood sample was collected in tubes including a solution of heparin. One hour after drawing the whole blood sample from each rat, approximately 75 microliters of whole blood was mixed with 600 microliters of ddH2O and incubated at a temperature of approximately 25° C. for approximately 30 seconds. Then 75 microliters of 10×PBS was added.
Following incubation, the sample was centrifuged at a speed of approximately 1200 rpm for approximately five minutes. Thereafter, resulting supernatant was removed from the leukocyte sample. Approximately 400 microliters of PBS including 0.89 mM calcium and 0.49 mM magnesium was added to the leukocyte sample. The sample was centrifuged again at a speed of approximately 1200 rpm for approximately five minutes. Thereafter, resulting supernatant was removed from the leukocyte sample. Approximately 400 microliters of PBS including 0.89 mM calcium and 0.49 mM magnesium was added to the leukocyte sample. […]

[2] = Fasting glucose test of treated ZDF rats; type: in vivo, rat; conditions: obese ZDF rats, 10 mg/kg oral gavage five times a week for 20 days; untreated group 242.25 (SD 14.58); treated SD 14.29
Description: as §1
The values of the average number of lipid bodies and average lipid body area correspond to results of a fasting glucose test of the untreated and treated subjects.

CN(CCOc1ccc(CC2SC(=O)NC2=O)cc1)c1ccccn1 (stereo not drawn) [Rosiglitazone]
average lipid body area per neutrophil cell of a leukocyte sample ([1]; untreated group 1.04 (SD 0.1), treated SD 0.06): approximately 0.65 μm^2
average number of lipid bodies per neutrophil cell of a leukocyte sample ([1]; untreated group 7.03 (SD 0.83), treated SD 0.24): approximately 4.09
fasting glucose [2]: 110.13 mg/dL
